Positions count from the first letter of the chain named. Read-outs that look alike come from different tables or passages of the source.
Legend:
[1] = molecular target: T1, Z. mobilis Tgt ("wild type" Tgt = Tgt(Tyr106Phe)) (Zymomonas mobilis, UniProt P28720, Y106F/C158V/A232S/V233G); assay: X-ray crystal structure of complex; type: binding
T1 construct: recombinant from pET9d-ZM-Y106F in E. coli BL21(DE3)/pLysS, purified; homodimer; all variants including "wild type" carry Tyr106Phe
T1 sequence (P28720 2-386 Y106F/C158V/A232S/V233G): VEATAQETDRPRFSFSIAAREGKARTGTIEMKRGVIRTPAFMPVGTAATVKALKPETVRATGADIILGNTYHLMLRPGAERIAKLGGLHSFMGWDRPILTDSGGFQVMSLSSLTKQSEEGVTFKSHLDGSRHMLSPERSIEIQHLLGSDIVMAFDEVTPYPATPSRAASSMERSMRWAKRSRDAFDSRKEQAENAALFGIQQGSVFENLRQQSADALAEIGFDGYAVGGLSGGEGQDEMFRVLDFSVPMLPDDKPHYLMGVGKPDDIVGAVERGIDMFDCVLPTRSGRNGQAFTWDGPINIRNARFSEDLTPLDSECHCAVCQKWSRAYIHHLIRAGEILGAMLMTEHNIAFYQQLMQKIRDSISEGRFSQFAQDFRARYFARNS

[2] = molecular target: T2, Z. mobilis Tgt ("wild type" Tgt = Tgt(Tyr106Phe)) (Zymomonas mobilis, UniProt P28720, Y106F); assay: inhibition of [[…]-3H]-guanine incorporation into tRNA(Tyr); type: biochemical; settings: read-out: K ic
T2 construct: recombinant from pET9d-ZM-Y106F in E. coli BL21(DE3)/pLysS, purified; homodimer; all variants including "wild type" carry Tyr106Phe
Target sequence in this assay (P28720 2-386 Y106F/C158V): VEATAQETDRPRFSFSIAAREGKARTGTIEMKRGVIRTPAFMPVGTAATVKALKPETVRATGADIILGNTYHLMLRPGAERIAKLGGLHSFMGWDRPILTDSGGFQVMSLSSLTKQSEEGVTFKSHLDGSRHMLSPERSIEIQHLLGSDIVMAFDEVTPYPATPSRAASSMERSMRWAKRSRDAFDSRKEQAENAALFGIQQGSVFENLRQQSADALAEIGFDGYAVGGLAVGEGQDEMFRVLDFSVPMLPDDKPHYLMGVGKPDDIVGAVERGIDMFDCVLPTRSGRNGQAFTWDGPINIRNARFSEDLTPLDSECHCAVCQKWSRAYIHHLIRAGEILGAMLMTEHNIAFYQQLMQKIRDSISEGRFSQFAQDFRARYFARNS

[3] = molecular target: T2, Z. mobilis Tgt ("wild type" Tgt = Tgt(Tyr106Phe)); assay: as above; type: biochemical; settings: read-out: K ic; remark: listed apart in the source
Target sequence in this assay (P28720 2-386 Y106F): as the sequence (P28720 2-386 Y106F/C158V) above, with V157C counted along it

[4] = molecular target: T3, Z. mobilis Tgt ("wild type" Tgt = Tgt(Tyr106Phe)) (Zymomonas mobilis, UniProt P28720, C158V/V233G/Y106F); assay: as above; type: biochemical; settings: read-out: K ic
T3 construct: recombinant from pET9d-ZM-Y106F in E. coli BL21(DE3)/pLysS, purified; homodimer; all variants including "wild type" carry Tyr106Phe
T3 sequence (P28720 2-386 Y106F/C158V/V233G): T1 sequence (P28720 2-386 Y106F/C158V/A232S/V233G) with S231A

[5] = molecular target: T4, Z. mobilis Tgt ("wild type" Tgt = Tgt(Tyr106Phe)) (Zymomonas mobilis, UniProt P28720, V233G/Y106F); assay: as above; type: biochemical; settings: read-out: K ic
T4 construct: recombinant from pET9d-ZM-Y106F in E. coli BL21(DE3)/pLysS, purified; homodimer; all variants including "wild type" carry Tyr106Phe
T4 sequence (P28720 2-386 Y106F/V233G): T1 sequence (P28720 2-386 Y106F/C158V/A232S/V233G) with V157C, S231A

Structure (SMILES)	X-ray crystal structure of complex ([1]; soaking)	Ki [2] [µM]	Ki [3] [µM]	X-ray crystal structure of complex ([1]; cocrystallisation)	Ki [4] [µM]	Ki [5] [µM]
NCc1c[nH]c2nc(N)[nH]c(=O)c12 [preQ1, 7-aminomethyl-7-deazaguanine]	in complex with preQ1 and in complex with queuine	–	–	–	–	–
Nc1nc2[nH]cc(CN[C@H]3C=C[C@H](O)[C@@H]3O)c2c(=O)[nH]1 [queuine, 7-(((4,5-cis-dihydroxy-2-cyclopenten-1-yl)amino)methyl)-7-deazaguanine]	–	3.8 ± 0.5	3.8 ± 0.6	in complex with preQ1 and in complex with queuine	8.9 ± 1.2	3.1 ± 0.2
